Columns and labels:
Assay in all cases: Bacterial panel testing, MIC by broth microdilution
Assay type in all cases: cell-based
Conditions in all cases: 20-24 hours growth
Eschericia coli = system: Eschericia coli
Experimental: (§1) One to three colonies of bacteria were picked from an Mueller-Hinton or Brain Heart infusion agar plate (depending on the bacterial strain) and transferred to 3 ml Mueller-Hinton broth or Brain Heart infusion media (depending on the bacterial strain). Bacteria were allowed to grow for 2-4 hours in an incubator at 37° C. Bacteria-inoculated media were dispersed in 0.9% saline to match McFarland standard density. 100 μl standardized inoculation was added to 20 ml media (dilution 1). 10 μl of the new dilution was added to 990 μl media and mixed (dilution 2). 10 μl of dilution 2 was spread on an agar plate and allowed to grow overnight. Colonies were then […].
(§2) Test compound was diluted to 10 μg/ml in dimethylsulfoxide. Four μl of Rifampicin antibiotic was loaded into row H, column 2.
(§3) All wells were then filled with 100 μl of inoculated media (dilution 1 from Example 1). A further 100 μl of the inoculated media was then added to column 2 and the contents are pipetted to thoroughly mix the contents. A full 100 μl was then transferred from column 2 and mixed into column 3. This process was continued from left to right until columns 2-12 were serially diluted, and the final draw from column 12 was discarded. The plates were covered with 3M sealing tape (plates containing Enterococcus faecium were sealed with Air Pore sealing tape) and allowed to grow for 20-24 hours. Cytotoxic wells (clear wells) are then scored and the potency of the compound was determined.

Pseudomonas aeruginosa = system: Pseudomonas aeruginosa
Experimental: as §1, §2, §3

Salmonella choleraesuis = system: Salmonella choleraesuis
Experimental: as §1, §2, §3

Structure (SMILES) | MIC EC (Eschericia coli) | MIC PA (Pseudomonas aeruginosa) | MIC SC (Salmonella choleraesuis)
OC1C2OC(CNc3cccc4ccccc34)C(OC3OC(CNc4cccc5ccccc45)C(OC4OC(CNc5cccc6ccccc56)C(OC5OC(CNc6cccc7ccccc67)C(OC6OC(CNc7cccc8ccccc78)C(OC7OC(CNc8cccc9ccccc89)C(OC8OC(CNc9cccc%10ccccc9%10)C(O2)C(O)C8O)C(O)C7O)C(O)C6O)C(O)C5O)C(O)C4O)C(O)C3O)C1O (stereo not drawn) | >200 µg/mL | >200 µg/mL | >200 µg/mL
Cc1cc(NCC2OC3OC4C(CNc5ccc(C(C)C)c(C)c5)OC(OC5C(CNc6ccc(C(C)C)c(C)c6)OC(OC6C(CNc7ccc(C(C)C)c(C)c7)OC(OC7C(CNc8ccc(C(C)C)c(C)c8)OC(OC8C(CNc9ccc(C(C)C)c(C)c9)OC(OC9C(CNc%10ccc(C(C)C)c(C)c%10)OC(OC2C(O)C3O)C(O)C9O)C(O)C8O)C(O)C7O)C(O)C6O)C(O)C5O)C(O)C4O)ccc1C(C)C (stereo not drawn) | >200 µg/mL | >200 µg/mL | >200 µg/mL
C[C@H](NCC1OC2OC3C(CN[C@@H](C)c4ccccc4)OC(OC4C(CN[C@@H](C)c5ccccc5)OC(OC5C(CN[C@@H](C)c6ccccc6)OC(OC6C(CN[C@@H](C)c7ccccc7)OC(OC7C(CN[C@@H](C)c8ccccc8)OC(OC8C(CN[C@@H](C)c9ccccc9)OC(OC1C(O)C2O)C(O)C8O)C(O)C7O)C(O)C6O)C(O)C5O)C(O)C4O)C(O)C3O)c1ccccc1 (stereo partly drawn) | – | >200 µg/mL | >200 µg/mL
CC(C)CCCCC(C)NCC1OC2OC3C(CNC(C)CCCCC(C)C)OC(OC4C(CNC(C)CCCCC(C)C)OC(OC5C(CNC(C)CCCCC(C)C)OC(OC6C(CNC(C)CCCCC(C)C)OC(OC7C(CNC(C)CCCCC(C)C)OC(OC8C(CNC(C)CCCCC(C)C)OC(OC1C(O)C2O)C(O)C8O)C(O)C7O)C(O)C6O)C(O)C5O)C(O)C4O)C(O)C3O (stereo not drawn) | – | >200 µg/mL | –
Cc1ccccc1NCC1OC2OC3C(CNc4ccccc4C)OC(OC4C(CNc5ccccc5C)OC(OC5C(CNc6ccccc6C)OC(OC6C(CNc7ccccc7C)OC(OC7C(CNc8ccccc8C)OC(OC8C(CNc9ccccc9C)OC(OC1C(O)C2O)C(O)C8O)C(O)C7O)C(O)C6O)C(O)C5O)C(O)C4O)C(O)C3O (stereo not drawn) | >200 µg/mL | >200 µg/mL | >200 µg/mL
OC1C2OC(CNCCC3=CCCCC3)C(OC3OC(CNCCC4=CCCCC4)C(OC4OC(CNCCC5=CCCCC5)C(OC5OC(CNCCC6=CCCCC6)C(OC6OC(CNCCC7=CCCCC7)C(OC7OC(CNCCC8=CCCCC8)C(OC8OC(CNCCC9=CCCCC9)C(O2)C(O)C8O)C(O)C7O)C(O)C6O)C(O)C5O)C(O)C4O)C(O)C3O)C1O (stereo not drawn) | – | >200 µg/mL | –
OC1C2OC(CNCc3ccc(Br)cc3)C(OC3OC(CNCc4ccc(Br)cc4)C(OC4OC(CNCc5ccc(Br)cc5)C(OC5OC(CNCc6ccc(Br)cc6)C(OC6OC(CNCc7ccc(Br)cc7)C(OC7OC(CNCc8ccc(Br)cc8)C(OC8OC(CNCc9ccc(Br)cc9)C(O2)C(O)C8O)C(O)C7O)C(O)C6O)C(O)C5O)C(O)C4O)C(O)C3O)C1O (stereo not drawn) | >200 µg/mL | – | –
OC1C2OC(CNCc3ccc(Cl)cc3)C(OC3OC(CNCc4ccc(Cl)cc4)C(OC4OC(CNCc5ccc(Cl)cc5)C(OC5OC(CNCc6ccc(Cl)cc6)C(OC6OC(CNCc7ccc(Cl)cc7)C(OC7OC(CNCc8ccc(Cl)cc8)C(OC8OC(CNCc9ccc(Cl)cc9)C(O2)C(O)C8O)C(O)C7O)C(O)C6O)C(O)C5O)C(O)C4O)C(O)C3O)C1O (stereo not drawn) | – | >200 µg/mL | >200 µg/mL
CCCCCCCCCCCC[N+]12CC[N+](CC3OC4OC5C(C[N+]67CC[N+](CCCCCCCCCCCC)(CC6)CC7)OC(OC6C(C[N+]78CC[N+](CCCCCCCCCCCC)(CC7)CC8)OC(OC7C(C[N+]89CC[N+](CCCCCCCCCCCC)(CC8)CC9)OC(OC8C(C[N+]9%10CC[N+](CCCCCCCCCCCC)(CC9)CC%10)OC(OC9C(C[N+]%10%11CC[N+](CCCCCCCCCCCC)(CC%10)CC%11)OC(OC%10C(C[N+]%11%12CC[N+](CCCCCCCCCCCC)(CC%11)CC%12)OC(OC3C(O)C4O)C(O)C%10O)C(O)C9O)C(O)C8O)C(O)C7O)C(O)C6O)C(O)C5O)(CC1)CC2.[Br-].[Br-].[Br-].[Br-].[Br-].[Br-].[Br-].[Br-].[Br-].[Br-].[Br-].[Br-].[Br-].[Br-] (stereo not drawn) | >200 µg/mL | >200 µg/mL | >200 µg/mL
OC1C2OC(CNc3ccccc3-c3ccccc3)C(OC3OC(CNc4ccccc4-c4ccccc4)C(OC4OC(CNc5ccccc5-c5ccccc5)C(OC5OC(CNc6ccccc6-c6ccccc6)C(OC6OC(CNc7ccccc7-c7ccccc7)C(OC7OC(CNc8ccccc8-c8ccccc8)C(OC8OC(CNc9ccccc9-c9ccccc9)C(O2)C(O)C8O)C(O)C7O)C(O)C6O)C(O)C5O)C(O)C4O)C(O)C3O)C1O (stereo not drawn) | >200 µg/mL | >200 µg/mL | >200 µg/mL
Cc1cccc(NCC2OC3OC4C(CNc5cccc(C)c5)OC(OC5C(CNc6cccc(C)c6)OC(OC6C(CNc7cccc(C)c7)OC(OC7C(CNc8cccc(C)c8)OC(OC8C(CNc9cccc(C)c9)OC(OC9C(CNc%10cccc(C)c%10)OC(OC2C(O)C3O)C(O)C9O)C(O)C8O)C(O)C7O)C(O)C6O)C(O)C5O)C(O)C4O)c1 (stereo not drawn) | >200 µg/mL | >200 µg/mL | >200 µg/mL
COc1cccc(CCNCC2OC3OC4C(CNCCc5cccc(OC)c5)OC(OC5C(CNCCc6cccc(OC)c6)OC(OC6C(CNCCc7cccc(OC)c7)OC(OC7C(CNCCc8cccc(OC)c8)OC(OC8C(CNCCc9cccc(OC)c9)OC(OC9C(CNCCc%10cccc(OC)c%10)OC(OC2C(O)C3O)C(O)C9O)C(O)C8O)C(O)C7O)C(O)C6O)C(O)C5O)C(O)C4O)c1 (stereo not drawn) | – | >200 µg/mL | –
CCCCCCCCCCNC[C@H]1O[C@@H]2O[C@H]3[C@H](O)[C@@H](O)[C@@H](O[C@H]4[C@H](O)[C@@H](O)[C@@H](O[C@H]5[C@H](O)[C@@H](O)[C@@H](O[C@H]6[C@H](O)[C@@H](O)[C@@H](O[C@H]7[C@H](O)[C@@H](O)[C@@H](O[C@H]8[C@H](O)[C@@H](O)[C@@H](O[C@H]1[C@H](O)[C@H]2O)O[C@@H]8CNCCCCCCCCCC)O[C@@H]7CNCCCCCCCCCC)O[C@@H]6CNCCCCCCCCCC)O[C@@H]5CNCCCCCCCCCC)O[C@@H]4CNCCCCCCCCCC)O[C@@H]3CNCCCCCCCCCC | >200 µg/mL | >200 µg/mL | >200 µg/mL
CCCCCCCCCCCCCCCC[N+]12CC[N+](CC3OC4OC5C(C[N+]67CC[N+](CCCCCCCCCCCCCCCC)(CC6)CC7)OC(OC6C(C[N+]78CC[N+](CCCCCCCCCCCCCCCC)(CC7)CC8)OC(OC7C(C[N+]89CC[N+](CCCCCCCCCCCCCCCC)(CC8)CC9)OC(OC8C(C[N+]9%10CC[N+](CCCCCCCCCCCCCCCC)(CC9)CC%10)OC(OC9C(C[N+]%10%11CC[N+](CCCCCCCCCCCCCCCC)(CC%10)CC%11)OC(OC%10C(C[N+]%11%12CC[N+](CCCCCCCCCCCCCCCC)(CC%11)CC%12)OC(OC3C(O)C4O)C(O)C%10O)C(O)C9O)C(O)C8O)C(O)C7O)C(O)C6O)C(O)C5O)(CC1)CC2.[Br-].[Br-].[Br-].[Br-].[Br-].[Br-].[Br-].[Br-].[Br-].[Br-].[Br-].[Br-].[Br-].[Br-] (stereo not drawn) | – | >200 µg/mL | –
